Measurements from patent publication US10660334B2, “Fused bicyclic heterocycle derivatives as pesticides” (Bayer CropScience Aktiengesellschaft, priority 2016, dated 2020).

How the values were obtained:
Musca domestica = Musca domestica test; type: in vivo; settings: application rate 100 ppm, adult houseflies, after 2 days
Procedure: Musca domestica Test Solvent: dimethyl sulfoxide To produce a suitable active ingredient formulation, 10 mg of active ingredient are mixed with 0.5 ml of dimethyl sulfoxide, and the concentrate is diluted with water to the desired concentration. Vessels containing a sponge treated with sugar solution and the active ingredient formulation of the desired concentration are populated with 10 adult houseflies (Musca domestica). After 2 days, the kill in % is determined. 100% means that all of the flies have been killed; 0% means that none of the flies have been killed.

Lucilia cuprina = Lucilia cuprina test; type: in vivo; settings: application rate 100 ppm, L1 larvae, after 2 days
Procedure: Lucilia cuprina Test Solvent: dimethyl sulfoxide To produce a suitable active ingredient formulation, 10 mg of active ingredient are mixed with 0.5 ml of dimethyl sulfoxide, and the concentrate is diluted with water to the desired concentration. About 20 L1 larvae of the Australian sheep blowfly (Lucilia cuprina) are transferred into a test vessel containing minced horsemeat and the active ingredient formulation of the desired concentration. After 2 days, the kill in % is determined. 100% means that all the larvae have been killed; 0% means that no larvae have been killed.

Myzus persicae [1] = experiment: Myzus persicae oral test; type: in vivo; settings: 120 h, application rate 4 ppm, after 5 days, read-out: efficacy (aphids killed)
Procedure: Myzus persicae—Oral Test Solvent: 100 parts by weight of acetone To produce a suitable active ingredient formulation, 1 part by weight of active ingredient is dissolved with the stated parts by weight of solvent and made up to the desired concentration with water. 50 μl of the active ingredient preparation are transferred into microtitre plates and made up to a final volume of 200 μl with 150 μl of IPL41 insect medium (33%+15% sugar). Subsequently, the plates are sealed with parafilm, which a mixed population of green peach aphids (Myzus persicae) within a second microtitre plate is able to puncture and imbibe the solution. After 5 days, the efficacy in % is determined. 100% means that all the aphids have been killed; 0% means that no aphids have been killed.

Myzus persicae [2] = experiment: Myzus persicae spray test; type: in vivo; settings: foliar, 120 h, spray on Chinese cabbage leaf discs, after 5 days, read-out: efficacy (aphids killed); for pest or weed control at 100 g/ha: application rate 100 g/ha; for pest or weed control at 20 g/ha: application rate 20 g/ha
Procedure: Myzus persicae—Spray Test Solvent: 78 parts by weight of acetone • • 1.5 parts by weight of dimethylformamide Emulsifier: alkylaryl polyglycol ether To produce a suitable active ingredient formulation, 1 part by weight of active ingredient is dissolved with the specified parts by weight of solvent and made up to the desired concentration with water containing an emulsifier concentration of 1000 ppm. To produce further test concentrations, the formulation is diluted with emulsifier-containing water. Discs of Chinese cabbage leaves (Brassica pekinensis) infested by all stages of the green peach aphid (Myzus persicae) are sprayed with an active ingredient formulation of the desired concentration. After 5 days, the efficacy in % is determined. 100% means that all the aphids have been killed; 0% means that no aphids have been killed.

Phaedon cochleariae = Phaedon cochleariae spray test; type: in vivo; settings: application rate 100 g/ha, spray on Chinese cabbage leaf discs, after 7 days
Procedure: Phaedon cochleariae—Spray Test
(§1) Solvent: 78.0 parts by weight of acetone • • 1.5 parts by weight of dimethylformamide
(§2) Emulsifier: alkylaryl polyglycol ether
(§3) To produce a suitable active ingredient formulation, 1 part by weight of active ingredient is dissolved with the specified parts by weight of solvent and made up to the desired concentration with water containing an emulsifier concentration of 1000 ppm. To produce further test concentrations, the formulation is diluted with emulsifier-containing water.
Discs of Chinese cabbage leaves (Brassica pekinensis) are sprayed with an active ingredient formulation of the desired concentration and, after drying, populated with larvae of the mustard beetle (Phaedon cochleariae).
After 7 days, the efficacy in % is determined. 100% means that all the beetle larvae have been killed; 0% means that no beetle larvae have been killed.

Ctenocephalides felis [3] = experiment: Ctenocephalides felis oral test; type: in vivo; settings: application rate 100 ppm in citrated cattle blood, after 2 days, adult cat fleas
Procedure: Ctenocephalides felis—Oral Test Solvent: dimethyl sulfoxide To produce a suitable active ingredient formulation, 10 mg of active ingredient are mixed with 0.5 ml of dimethyl sulfoxide. Dilution with citrated cattle blood gives the desired concentration. About 20 unfed adult cat fleas (Cienocephalides felis) are placed into a chamber which is closed at the top and bottom with gauze. A metal cylinder whose bottom end is closed with parafilm is placed onto the chamber. The cylinder contains the blood/active ingredient formulation, which can be imbibed by the fleas through the parafilm membrane. After 2 days, the kill in % is determined. 100% means that all of the fleas have been killed; 0% means that none of the fleas have been killed.

Ctenocephalides felis [4] = experiment: Ctenocephalides felis in vitro contact test with adult cat fleas; type: in vivo; settings: application rate 5 μg/cm^2 (=500 g/ha), after 48 h
Procedure: Ctenocephalides felis—In Vitro Contact Tests with Adult Cat Fleas For the coating of the test tubes, 9 mg of active ingredient are first dissolved in 1 ml of acetone p.a. and then diluted to the desired concentration with acetone p.a. 250 μl of the solution are distributed homogeneously on the inner walls and the base of a 25 ml glass tube by turning and rocking on an orbital shaker (rocking rotation at 30 rpm for 2 h). With 900 ppm of active ingredient solution and internal surface area 44.7 cm^2, given homogeneous distribution, an area-based dose of 5 μg/cm^2 is achieved. After the solvent has evaporated off, the tubes are populated with 5-10 adult cat fleas (Ctenocephalides felis), sealed with a perforated plastic lid and incubated in a horizontal position at room temperature and ambient humidity. After 48 h, efficacy is determined. To this end, the tubes are stood upright and the fleas are knocked to the base of the tube. Fleas which remain motionless at the base or move in an uncoordinated manner are considered to be dead or moribund. […] 100% efficacy means that all the fleas were dead or moribund. 0% efficacy means that no fleas were harmed.

[5] = log P by HPLC on reversed-phase column (EEC Directive 79/831 Annex V.A8), acidic range; type: physicochemical; settings: reversed-phase C18 HPLC column; HPLC reversed-phase C18, 55° C., pH 2.7, 0.1% aqueous formic acid and acetonitrile; read-out: log P (HCOOH)
Procedure: The log P values are measured according to EEC Directive 79/831 Annex V.A8 by HPLC (high-performance liquid chromatography) on a reversed-phase column (C18). Temperature: 55° C. The LC-MS determination in the acidic range is effected at pH 2.7 with 0.1% aqueous formic acid and acetonitrile (containing 0.1% formic acid) as eluents; linear gradient from 10% acetonitrile to 95% acetonitrile. Called log P (HCOOH) in the table.

Tetranychus urticae = Tetranychus urticae spray test, OP-resistant; type: in vivo; settings: application rate 100 g/ha, spray on bean leaf discs, after 6 days
Procedure: Tetranychus urticae—Spray Test, OP-Resistant
as §1, §2, §3
Discs of bean leaves (Phaseolus vulgaris) infested with all stages of the greenhouse red spider mite (Tetranychus urticae) are sprayed with an active ingredient formulation of the desired concentration.
After 6 days, the efficacy in % is determined. 100% means that all the spider mites have been killed; 0% means that no spider mites have been killed.

Spodoptera frugiperda = Spodoptera frugiperda spray test; type: in vivo; settings: application rate 100 g/ha, spray on maize leaf discs, after 7 days
Procedure: Spodoptera frugiperda—Spray Test Solvent: 78.0 parts by weight of acetone • • 1.5 parts by weight of dimethylformamide Emulsifier: alkylaryl polyglycol ether To produce a suitable active ingredient formulation, 1 part by weight of active ingredient is dissolved with the specified parts by weight of solvent and made up to the desired concentration with water containing an emulsifier concentration of 1000 ppm. To produce further test concentrations, the formulation is diluted with emulsifier-containing water. Leaf discs of maize (Zea mays) are sprayed with an active ingredient formulation of the desired concentration and, after drying, populated with caterpillars of the armyworm (Spodoptera frugiperda). After 7 days, the efficacy in % is determined. 100% means that all the caterpillars have been killed; 0% means that no caterpillar has been killed.

Boophilus microplus = Boophilus microplus injection test; type: in vivo; settings: application rate 20 μg/animal, injection into engorged adult female cattle ticks, after 7 days
Procedure: Boophilus microplus—Injection Test Solvent: dimethyl sulfoxide To produce a suitable active ingredient formulation, 10 mg of active ingredient are mixed with 0.5 ml of solvent and the concentrate is diluted to the desired concentration with solvent. 1 μl of the active ingredient solution is injected into the abdomen of 5 engorged adult female cattle ticks (Boophilus microplus). The animals are transferred into dishes and kept in a climate-controlled room. Efficacy is assessed after 7 days by laying of fertile eggs. Eggs which are not visibly fertile are stored in a climate-controlled cabinet until the larvae hatch after about 42 days. An efficacy of 100% means that none of the ticks has laid any fertile eggs; 0% means that all the eggs are fertile.

Meloidogyne incognita = Meloidogyne incognita test; type: in vivo; settings: application rate 20 ppm, lettuce, after 14 days
Procedure: Meloidogyne incognita Test Solvent: 125.0 parts by weight of acetone To produce a suitable active ingredient formulation, 1 part by weight of active ingredient is mixed with the stated amount of solvent and the concentrate is diluted to the desired concentration with water. Vessels are filled with sand, active ingredient solution, an egg/larvae suspension of the southern root-knot nematode (Meloidogyne incognita) and lettuce seeds. The lettuce seeds germinate and the plants develop. The galls develop on the roots. After 14 days, the nematicidal efficacy in % is determined by the formation of galls. 100% means that no galls were found; 0% means that the number of galls on the treated plants corresponds to the untreated control.

| chromatographic logP [5] | SMILES | efficacy (kill) (Musca domestica) | efficacy (kill) (Lucilia cuprina) | pest or weed control at 4 ppm (Myzus persicae [1]) | pest or weed control at 100 g/ha (Myzus persicae [2]) | efficacy (beetle larvae killed) (Phaedon cochleariae) | efficacy (kill) (Ctenocephalides felis [3]) | efficacy (fleas dead or moribund) (Ctenocephalides felis [4]) | efficacy (spider mites killed) (Tetranychus urticae) | pest or weed control at 20 g/ha (Myzus persicae [2]) | efficacy (caterpillars killed) (Spodoptera frugiperda) | efficacy (laying of fertile eggs) (Boophilus microplus) | nematicidal efficacy (formation of galls) (Meloidogyne incognita) |
| --- | --- | --- | --- | --- | --- | --- | --- | --- | --- | --- | --- | --- | --- |
|  | Cn1c(-c2nc3n(c2S(C)(=O)=O)CCCC3)nc2cc(C(F)(F)C(F)(F)F)ncc21 [Example I-013] | 80% | 100% | 100% | 90% | 83% | 95% |  |  |  |  |  |  |
| 2.37 | CCSc1c(-c2nc3cc(C(F)(F)F)ncc3n2C)nc2n1CCCC2 [Example I-001, 2-(3-Ethylsulfanyl-5,6,7,8-tetrahydroimidazo[1,2-a]pyridin-2-yl)-3-methyl-6-(trifluoromethyl)imidazo[4,5-c]pyridine] |  |  |  |  |  |  | 100% |  |  |  |  |  |
|  | CCS(=O)(=O)c1c(-c2nc3cc(C(F)(F)F)ncc3n2C)nc2n1CC(C(F)(F)F)CC2 (stereo not shown) [Example I-003] |  |  | 100% | 100% |  |  |  | 90% |  |  |  |  |
|  | CCS(=O)(=O)c1c(-c2nc3cc(C(F)(F)F)ncc3n2C)nc2n1CCC(C)C2 (stereo not shown) [Example I-007] | 100% | 100% | 100% | 100% |  | 80% | 100% |  | 100% |  |  |  |
|  | CCS(=O)(=O)c1c(-c2nc3cc(C(F)(F)C(F)(F)F)cnc3n2C)nc2n1CCCC2 [Example I-017] |  |  | 100% | 100% |  |  |  |  | 90% | 100% |  |  |
|  | CCS(=O)(=O)c1c(-c2nc3cc(C(F)(F)F)ncc3n2C)nc2n1CCC(C(F)(F)F)C2 (stereo not shown) [Example I-010] |  |  | 100% |  |  |  |  |  | 90% | 83% |  |  |
|  | CCS(=O)(=O)c1c(-c2nc3cc(C(F)(F)F)cnc3n2C)nc2n1CCCC2 [Example I-011] | 80% | 100% | 100% | 90% |  | 95% |  |  | 90% |  |  |  |
|  | CCS(=O)(=O)c1c(-c2nc3cc(C(F)(F)F)ncc3n2C)nc2n1CC(C)CC2 (stereo not shown) [Example I-009] | 100% | 100% | 100% | 100% |  | 80% |  |  | 90% |  | 100% |  |
|  | CCS(=O)(=O)c1c(-c2nc3cc(C(F)(F)C(F)(F)F)ncc3n2C)nc2n1CCCC2 [Example I-012] |  | 100% | 100% | 90% | 100% | 100% |  |  | 90% | 83% |  | 90% |
